In publication PMC9511493, “2-(Fluoromethoxy)-4′-(S-methanesulfonimidoyl)-1,1′-biphenyl (UCM-1306), an Orally Bioavailable Positive Allosteric Modulator of the Human Dopamine D1 Receptor for Parkinson’s Disease” (Journal of Medicinal Chemistry, 2022):

Key:
human D5R = biological target: T1, human D5R (Homo sapiens, UniProt P21918); assay: cAMP Hunter eXpress DRD5 assay at human D5R; assay type: cell-based; details: 10 μM compound
T1 construct: host or cells: cells supplied with the cAMP Hunter eXpress DRD5 assay kit
Experimental: Functional studies at human D5R receptors were carried out in human D5R, using a cAMP Hunter eXpress DRD5 assay kit from DiscoverX. Briefly, cells were plated and maintained for 24 h at 37 °C in a 5% CO2 atmosphere in the cell plating reagent provided in the kit. After this time, test compounds were added to the cells and incubated for 15 min at 37 °C, followed by treatment with dopamine and incubation for an additional 30 min at 37 °C. Cells were then treated with the cAMP working detection solution provided with the kit for 1 h, and then cAMP solution A was added and incubated for 3 h at rt. cAMP formation was measured by luminescence detection (integration time = 500 ms) in a Tecan M1000 Genius Pro reader. Data were normalized to dopamine maximum effect and fitted to a 4-parameter logistic equation using Prism v2.1 software (GraphPad Inc).

human dopamine D1R = biological target: T2, human dopamine D1R (Homo sapiens, UniProt P21728); assay: radioligand binding assay with [3H]SCH23390 at human D1R membranes
T2 construct: purchased Perkin Elmer
Experimental: Binding assays were carried out by using plasma membranes (12 μg/well) expressing human dopamine D1R (Perkin Elmer). […] After this time, the well content was filtered through a Millipore manifold and membranes were washed four times with assay buffer. The plate was dried and radioactivity was measured in a Microbeta Trilux liquid scintillation reader (Perkin Elmer). Non-specific binding was determined in the presence of 1 μM (+)-butaclamol. Data were normalized to the percentage of specific binding and fitted to a 4-parameter logistic equation using with Prism v2.1 software (GraphPad Inc). For the calculation of the affinity ratio of DA in the presence of the allosteric modulators, data were fitted according to the equations reported by Lazareno and Birdsall.[44]

human D4R = biological target: T3, human D4R (Homo sapiens, UniProt P21917); assay: PatHunter beta-arrestin assay at human D4R; assay type: cell-based; details: 10 μM compound
T3 construct: host or cells: cells supplied with the PatHunter Beta-arrestin eXpress GPCR assay kit
T3 sequence (P21917 1-419): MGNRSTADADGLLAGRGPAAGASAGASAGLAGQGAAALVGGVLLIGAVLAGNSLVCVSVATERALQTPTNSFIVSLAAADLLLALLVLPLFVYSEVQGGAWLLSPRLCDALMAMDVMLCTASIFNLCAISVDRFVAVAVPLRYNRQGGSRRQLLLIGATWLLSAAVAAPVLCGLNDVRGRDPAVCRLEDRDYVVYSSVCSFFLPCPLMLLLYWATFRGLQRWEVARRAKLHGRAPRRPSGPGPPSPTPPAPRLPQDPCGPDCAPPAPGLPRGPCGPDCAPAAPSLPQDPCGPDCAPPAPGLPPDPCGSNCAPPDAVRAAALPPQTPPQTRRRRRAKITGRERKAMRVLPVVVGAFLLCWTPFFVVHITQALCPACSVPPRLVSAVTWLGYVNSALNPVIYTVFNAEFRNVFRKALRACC
Experimental: Functional studies at both human D3 and D4 receptors were carried out in human D3 and D4 receptors, using a PatHunter Beta-arrestin eXpress GPCR assay kit from DiscoverX. Briefly, cells were plated and maintained for 48 h at 37 °C in a 5% CO2 atmosphere in cell plating reagent provided in the kit. After this time, test compounds were added to the cells and incubated for 30 min at 37 °C. Dopamine was added to the cells and incubated for an additional 90 min at 37 °C. Cells were then treated with the working detection solution provided with the kit for 1 h and beta-arrestin translocation was measured by luminescence detection (integration time = 500 ms) in a Tecan M1000 Genius Pro reader. Data were normalized to dopamine maximum effect and fitted to a 4-parameter logistic equation using Prism v2.1 software (GraphPad Inc).

[1] = biological target: T4, human serum albumin (HSA) (Homo sapiens, UniProt P02768); assay: HSA binding assay (TRANSIL XL); assay type: in vitro ADME; details: for HSA binding (%): at a concentration of 5 μM
T4 construct: purchased Sovicell TMP-0210-2096
Experimental: HSA binding assay. The assessment of compounds binding to HSA was performed by incubating a fixed concentration of the compound with different concentrations of immobilized HSA, using the TRANSILXL HSA Binding Kit (TMP-0210- 2096, Sovicell). An 8-well unit of the TRANSIL assay plate was used for each compound : six wells contain increasing concentrations of HSA immobilized on silica beads suspended in PBS at pH 7.4, and two wells contain buffer only and serve as references to account for nonspecific binding. The TRANSIL assay plate was thawed for 3 h at rt and centrifuged at 750g for 5 s. Then, 15 μ L of an 80 μ M stock solution of the compound in PBS (for a final concentration of 5 μ M) were added to each well of the 8-well unit, and the plate was incubated on a plate shaker at 1000 rpm for 12 min at rt. After this time, the plate was centrifuged at 750gfor 10 min, and 50 μL of the supernatants were transferred for analytical quantification by HPLC-MS using selected ion monitoring (SIM). The binding percentage was calculated from the remaining free compound concentration in the supernatant of each well, using the spreadsheet and algorithms supplied with the kit.
Stability in mouse serum. Stability for selected compounds and reference compound enalapril was assayed by adding 625 μL of a 250 μM solution of test compound in PBS pH 7.4 to 1.875 mL of mouse serum (Europa Bioproducts, EQSM-0100) pre-warmed a t 37 °C. Next, solutions were incubated at 37 °C for 4 h, taking aliquots of 250 μL at t = 0, 1, 2, 3, and 4 h. Each aliquot was quenched in 375 μL of cold ACN, vortexed, incubated for 10 min in ice and centrifuged at 39000g for 10 min. Supernatants were then analyzed by HPLC-MS using SIM mode, and quantification was estimated by using the peak area integration normalized with an internal standard.
Stability assay in mouse liver homogenate. Stability of test compounds and reference compound propranolol was determined by incubation in liver homogenates following previously reported procedure. […]

T4 sequence (P02768 25-609): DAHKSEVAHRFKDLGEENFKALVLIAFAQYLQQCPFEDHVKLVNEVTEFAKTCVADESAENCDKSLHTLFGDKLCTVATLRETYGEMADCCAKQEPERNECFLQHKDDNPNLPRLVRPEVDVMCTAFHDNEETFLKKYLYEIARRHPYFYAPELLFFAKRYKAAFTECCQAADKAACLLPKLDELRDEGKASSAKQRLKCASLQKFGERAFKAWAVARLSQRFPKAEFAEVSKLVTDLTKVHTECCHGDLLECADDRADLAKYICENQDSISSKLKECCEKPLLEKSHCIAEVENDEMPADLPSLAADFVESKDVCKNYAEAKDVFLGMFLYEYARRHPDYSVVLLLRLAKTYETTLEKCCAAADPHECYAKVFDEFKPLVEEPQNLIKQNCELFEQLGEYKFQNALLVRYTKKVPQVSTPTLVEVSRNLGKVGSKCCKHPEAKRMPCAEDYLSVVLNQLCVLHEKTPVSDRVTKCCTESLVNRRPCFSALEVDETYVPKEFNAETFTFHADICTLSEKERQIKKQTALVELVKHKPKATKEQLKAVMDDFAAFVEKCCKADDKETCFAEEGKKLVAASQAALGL
T2 sequence (P21728 whole entry): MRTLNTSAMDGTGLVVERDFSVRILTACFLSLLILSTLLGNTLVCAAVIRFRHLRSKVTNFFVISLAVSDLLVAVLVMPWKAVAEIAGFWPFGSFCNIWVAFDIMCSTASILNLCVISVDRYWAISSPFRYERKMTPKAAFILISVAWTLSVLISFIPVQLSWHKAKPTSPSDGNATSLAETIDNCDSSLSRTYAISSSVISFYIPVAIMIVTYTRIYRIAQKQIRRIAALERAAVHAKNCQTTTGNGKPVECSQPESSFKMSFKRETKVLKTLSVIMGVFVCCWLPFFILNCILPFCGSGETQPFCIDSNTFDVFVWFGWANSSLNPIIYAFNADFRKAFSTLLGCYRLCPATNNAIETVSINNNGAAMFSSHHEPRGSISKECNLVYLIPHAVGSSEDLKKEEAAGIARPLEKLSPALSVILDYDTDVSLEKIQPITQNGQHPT
T1 sequence (P21918 whole entry): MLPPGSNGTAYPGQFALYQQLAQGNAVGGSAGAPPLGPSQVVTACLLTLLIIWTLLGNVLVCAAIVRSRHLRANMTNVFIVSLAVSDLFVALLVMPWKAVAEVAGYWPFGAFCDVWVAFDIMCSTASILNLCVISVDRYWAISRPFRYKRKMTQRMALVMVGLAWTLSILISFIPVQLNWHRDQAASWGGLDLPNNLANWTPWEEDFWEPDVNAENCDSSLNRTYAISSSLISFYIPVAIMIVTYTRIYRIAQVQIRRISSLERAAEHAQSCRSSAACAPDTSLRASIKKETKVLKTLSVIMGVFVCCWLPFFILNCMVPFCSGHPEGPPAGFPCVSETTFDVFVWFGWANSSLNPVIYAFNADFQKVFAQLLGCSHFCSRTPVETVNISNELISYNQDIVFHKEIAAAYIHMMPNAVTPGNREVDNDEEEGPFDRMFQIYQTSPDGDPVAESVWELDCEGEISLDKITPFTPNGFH

O=Cc1ccc(-c2ccccc2OCF)cc1 [Compound 3, 2′-(Fluoromethoxy)[1,1′-biphenyl]-4-carbaldehyde]
enhancement of DA Emax at human D5 receptor (human D5R): did not enhance DA Emax | displacement of the radioligand [3H]SCH-23390 (human dopamine D1R; at 10 μM): 12% | enhancement of DA Emax at human D4 receptor (human D4R): did not enhance DA Emax | HSA binding (%) [1]: > 99%

CS(=N)(=O)c1ccc(-c2ccccc2OCF)cc1 (stereo not drawn) [Compound 26, 2-(Fluoromethoxy)-4′-(S-methanesulfonimidoyl)-1,1′-biphenyl]
enhancement of DA Emax at human D5 receptor (human D5R): subtype selectivity | affinity ratio of [3H]SCH-23390 (human dopamine D1R; in the presence of 4 μM DA): concentration-dependent increase of the affinity ratio values | enhancement of DA Emax at human D4 receptor (human D4R): subtype selectivity | HSA binding (%) [1]: 79% | Kd ([1]; read-out: HSA dissociation constant Kd): 156 µM
